Laboratory results reported in ChEMBL document CHEMBL1201862, “PubChem BioAssay data set” (2004).
Active and inactive are the calls of the source.

Columns and labels:
[1] = molecular target: Voltage-dependent T-type calcium channel subunit alpha-1H (Homo sapiens, UniProt O95180); format: functional;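 note: channel activity triggered by adding a high calcium stimulation buffer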
Hexokinase = molecular target: T1, Hexokinase (Trypanosoma brucei, UniProt Q38C41); test: Confirmation assay for inhibitors of Trypanosoma brucei hexokinase 1-Analogue-first series. [Related pubchem assays (depositor defined):AID1430, AID1632, AID2516, AID2560, AID2579, AID2600, AID449725, AID492951]; format: functional
T1 sequence (Q38C41 whole entry): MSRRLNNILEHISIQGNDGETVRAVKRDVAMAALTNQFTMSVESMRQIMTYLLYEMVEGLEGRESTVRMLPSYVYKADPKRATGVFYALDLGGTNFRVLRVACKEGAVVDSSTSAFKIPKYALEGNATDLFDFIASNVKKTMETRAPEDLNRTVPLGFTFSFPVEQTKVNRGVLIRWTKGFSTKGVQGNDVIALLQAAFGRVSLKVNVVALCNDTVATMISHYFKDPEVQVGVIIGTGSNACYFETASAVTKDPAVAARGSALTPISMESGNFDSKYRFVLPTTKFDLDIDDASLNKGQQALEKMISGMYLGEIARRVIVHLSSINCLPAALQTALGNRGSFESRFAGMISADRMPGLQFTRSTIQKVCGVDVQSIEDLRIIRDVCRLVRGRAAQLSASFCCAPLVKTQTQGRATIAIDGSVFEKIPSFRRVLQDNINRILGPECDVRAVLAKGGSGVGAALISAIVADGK

[2] = viability of uninfected HEp-2 cells – cell-based, HTS, cytotoxicity control for RSV inhibitor project, dose response (AID 2410); format: functional; settings: human respiratory syncytial virus
Streptokinase A = molecular target: T2, Streptokinase A (Streptococcus pyogenes serotype M1, UniProt P10520); test: viability-normalized secreted streptokinase activity reduction – plasminogen activation absorbance, OD405, dose response (AID 1914); format: functional, Streptococcus pyogenes M1 GAS;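 note: secreted streptokinase activity via plasminogen activation per viability signal from cell pellet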
T2 sequence (P10520 whole entry): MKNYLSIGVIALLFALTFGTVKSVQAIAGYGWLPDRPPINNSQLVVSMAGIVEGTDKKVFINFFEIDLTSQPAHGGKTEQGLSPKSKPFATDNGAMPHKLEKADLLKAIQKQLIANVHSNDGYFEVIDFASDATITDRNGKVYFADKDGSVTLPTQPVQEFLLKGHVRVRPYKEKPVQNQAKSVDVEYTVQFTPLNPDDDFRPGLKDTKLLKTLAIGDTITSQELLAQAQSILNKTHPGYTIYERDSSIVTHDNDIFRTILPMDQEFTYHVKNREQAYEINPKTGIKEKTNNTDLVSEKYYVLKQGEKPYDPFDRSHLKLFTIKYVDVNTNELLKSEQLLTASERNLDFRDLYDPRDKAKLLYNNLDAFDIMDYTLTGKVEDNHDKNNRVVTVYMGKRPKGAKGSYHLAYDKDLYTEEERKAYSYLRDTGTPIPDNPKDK

Streptococcus = test: GAS UMAA2166 growth inhibition – luminescence, BacTiterGlo, counter-screen for streptokinase expression inhibitor project, dose response (AID 1915); format: functional, organism-based;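 note: potency for reduction of bacterial viability or growth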
[3] = tested on: Streptococcus sp. 'group A'; test: Streptococcus pyogenes SK(-)GAS viability under kanamycin – luminescence, BacTiterGlo, confirmation, counter-screen for streptokinase expression inhibitor project, dose response (AID 1900); format: functional, organism-based
Leucine aminopeptidase = molecular target: T3, Leucine aminopeptidase (Plasmodium falciparum 3D7, UniProt Q8IL11); test: P. falciparum M17LAP inhibitors, primary screen, biochemical, fluorogenic H-Leu-NHMec substrate, 1536-well (AID 1619); format: functional
T3 sequence (Q8IL11 whole entry): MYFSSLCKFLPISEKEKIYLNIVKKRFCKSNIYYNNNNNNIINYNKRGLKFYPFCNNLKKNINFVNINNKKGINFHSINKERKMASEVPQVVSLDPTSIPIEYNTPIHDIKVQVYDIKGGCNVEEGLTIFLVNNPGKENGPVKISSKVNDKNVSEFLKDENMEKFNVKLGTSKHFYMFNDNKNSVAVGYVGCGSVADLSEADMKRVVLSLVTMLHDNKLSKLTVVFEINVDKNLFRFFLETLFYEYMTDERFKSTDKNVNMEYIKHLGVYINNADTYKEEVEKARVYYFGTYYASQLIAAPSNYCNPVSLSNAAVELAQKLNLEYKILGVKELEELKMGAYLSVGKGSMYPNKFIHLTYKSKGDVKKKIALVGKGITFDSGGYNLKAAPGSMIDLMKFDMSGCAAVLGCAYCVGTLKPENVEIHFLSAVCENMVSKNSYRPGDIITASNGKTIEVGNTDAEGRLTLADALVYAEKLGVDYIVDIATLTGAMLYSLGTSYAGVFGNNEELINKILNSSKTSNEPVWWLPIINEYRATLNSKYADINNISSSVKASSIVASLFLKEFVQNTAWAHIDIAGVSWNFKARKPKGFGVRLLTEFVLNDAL

[4] = molecular target: T4, Short transient receptor potential channel 4 (Mus musculus, UniProt Q9QUQ5); test: block of DAMGO-driven TRPC4 calcium entry – cell-based, HEK293 TRPC4/mu-opioid, Fluo-4 calcium, dose response (AID 434942); format: functional;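 note: potency of inhibitors blocking the TRPC4 calcium response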
T4 sequence (Q9QUQ5 whole entry): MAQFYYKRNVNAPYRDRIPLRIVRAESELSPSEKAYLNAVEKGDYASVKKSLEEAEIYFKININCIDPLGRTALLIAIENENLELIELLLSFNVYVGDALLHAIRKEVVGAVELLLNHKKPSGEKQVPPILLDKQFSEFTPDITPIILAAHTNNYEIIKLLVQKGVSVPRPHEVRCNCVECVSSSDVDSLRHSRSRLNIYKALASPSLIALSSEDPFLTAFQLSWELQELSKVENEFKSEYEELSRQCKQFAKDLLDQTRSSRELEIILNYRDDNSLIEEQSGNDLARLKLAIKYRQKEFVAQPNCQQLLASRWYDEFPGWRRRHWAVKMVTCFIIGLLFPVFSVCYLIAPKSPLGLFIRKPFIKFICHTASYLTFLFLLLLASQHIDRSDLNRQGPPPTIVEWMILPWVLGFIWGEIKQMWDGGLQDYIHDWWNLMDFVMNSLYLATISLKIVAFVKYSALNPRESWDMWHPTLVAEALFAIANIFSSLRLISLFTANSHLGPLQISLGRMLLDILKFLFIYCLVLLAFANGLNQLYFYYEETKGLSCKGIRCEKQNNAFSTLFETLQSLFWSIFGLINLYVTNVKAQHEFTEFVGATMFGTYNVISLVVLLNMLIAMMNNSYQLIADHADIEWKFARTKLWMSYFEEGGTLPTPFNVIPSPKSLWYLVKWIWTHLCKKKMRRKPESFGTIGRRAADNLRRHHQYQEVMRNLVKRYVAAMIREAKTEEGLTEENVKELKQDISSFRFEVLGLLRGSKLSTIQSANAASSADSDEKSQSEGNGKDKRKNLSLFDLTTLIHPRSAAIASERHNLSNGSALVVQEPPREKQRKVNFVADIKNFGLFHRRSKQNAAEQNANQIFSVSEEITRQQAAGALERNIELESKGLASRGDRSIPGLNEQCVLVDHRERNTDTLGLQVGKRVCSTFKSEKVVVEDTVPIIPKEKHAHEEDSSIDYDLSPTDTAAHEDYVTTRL

[5] = molecular target: T5, Heat shock factor protein 1 (Mus musculus, UniProt P38532); test: enhancement of HSF1-driven luciferase signal – cell-based, NIH3T3, luminescence, dose retest, confirmation (AID 435004); format: functional;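 note: stress induced by proteasome inhibitor MG132 added 30 min after compound; luciferase reporter driven by HSF1 response element in NIH3T3 cells; actives raise luminescence as potentiators of the MG132 stress response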
T5 sequence (P38532 whole entry): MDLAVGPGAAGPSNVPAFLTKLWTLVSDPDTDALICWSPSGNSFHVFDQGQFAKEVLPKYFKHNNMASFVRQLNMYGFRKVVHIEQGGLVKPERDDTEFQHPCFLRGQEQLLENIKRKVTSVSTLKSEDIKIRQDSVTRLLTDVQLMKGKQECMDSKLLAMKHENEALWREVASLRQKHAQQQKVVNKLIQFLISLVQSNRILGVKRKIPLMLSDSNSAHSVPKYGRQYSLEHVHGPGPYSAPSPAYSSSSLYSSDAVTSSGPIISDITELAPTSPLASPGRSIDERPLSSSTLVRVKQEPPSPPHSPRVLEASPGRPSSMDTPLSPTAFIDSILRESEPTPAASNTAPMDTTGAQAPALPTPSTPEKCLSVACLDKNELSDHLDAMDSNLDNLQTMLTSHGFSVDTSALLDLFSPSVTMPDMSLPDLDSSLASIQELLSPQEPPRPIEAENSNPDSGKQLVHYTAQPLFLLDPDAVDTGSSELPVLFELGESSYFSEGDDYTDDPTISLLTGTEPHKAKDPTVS

[6] = THP-1 cell cytotoxicity, dose response, cytotoxicity control for non-replicating M. tuberculosis project (AID 489025); format: functional
[7] = molecular target: T6, Rac GTPase-activating protein 1 (Homo sapiens, UniProt Q9H0H5); test: blockers of MgcRacGAP-driven Rac1 GTP hydrolysis – biochemical, ADP Hunter fluorescence, primary and confirmatory, confirmation (AID 624330); format: functional
T6 sequence (Q9H0H5 whole entry): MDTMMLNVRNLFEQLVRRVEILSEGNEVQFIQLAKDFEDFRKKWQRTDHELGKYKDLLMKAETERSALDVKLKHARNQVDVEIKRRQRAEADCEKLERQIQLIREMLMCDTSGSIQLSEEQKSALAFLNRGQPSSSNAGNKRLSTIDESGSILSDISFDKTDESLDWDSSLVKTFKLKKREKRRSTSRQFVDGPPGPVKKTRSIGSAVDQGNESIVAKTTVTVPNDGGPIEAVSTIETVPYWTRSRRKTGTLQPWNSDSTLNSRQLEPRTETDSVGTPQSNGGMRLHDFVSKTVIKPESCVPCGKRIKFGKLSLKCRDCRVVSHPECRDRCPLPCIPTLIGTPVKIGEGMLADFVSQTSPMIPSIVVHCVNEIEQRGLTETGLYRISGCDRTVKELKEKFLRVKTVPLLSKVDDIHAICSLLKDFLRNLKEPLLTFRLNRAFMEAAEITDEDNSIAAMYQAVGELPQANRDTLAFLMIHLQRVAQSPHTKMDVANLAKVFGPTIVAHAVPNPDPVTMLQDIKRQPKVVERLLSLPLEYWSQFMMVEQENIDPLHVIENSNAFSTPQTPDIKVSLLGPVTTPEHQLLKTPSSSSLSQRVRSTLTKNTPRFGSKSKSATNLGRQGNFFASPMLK

Large T antigen = Large T antigen (Simian virus 40, UniProt P03070); format: functional, Betapolyomavirus macacae;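 note: Confirmatory-stage PubChem screen for compounds that inhibit SV40 T antigen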
Sequence of Large T antigen (P03070 whole entry): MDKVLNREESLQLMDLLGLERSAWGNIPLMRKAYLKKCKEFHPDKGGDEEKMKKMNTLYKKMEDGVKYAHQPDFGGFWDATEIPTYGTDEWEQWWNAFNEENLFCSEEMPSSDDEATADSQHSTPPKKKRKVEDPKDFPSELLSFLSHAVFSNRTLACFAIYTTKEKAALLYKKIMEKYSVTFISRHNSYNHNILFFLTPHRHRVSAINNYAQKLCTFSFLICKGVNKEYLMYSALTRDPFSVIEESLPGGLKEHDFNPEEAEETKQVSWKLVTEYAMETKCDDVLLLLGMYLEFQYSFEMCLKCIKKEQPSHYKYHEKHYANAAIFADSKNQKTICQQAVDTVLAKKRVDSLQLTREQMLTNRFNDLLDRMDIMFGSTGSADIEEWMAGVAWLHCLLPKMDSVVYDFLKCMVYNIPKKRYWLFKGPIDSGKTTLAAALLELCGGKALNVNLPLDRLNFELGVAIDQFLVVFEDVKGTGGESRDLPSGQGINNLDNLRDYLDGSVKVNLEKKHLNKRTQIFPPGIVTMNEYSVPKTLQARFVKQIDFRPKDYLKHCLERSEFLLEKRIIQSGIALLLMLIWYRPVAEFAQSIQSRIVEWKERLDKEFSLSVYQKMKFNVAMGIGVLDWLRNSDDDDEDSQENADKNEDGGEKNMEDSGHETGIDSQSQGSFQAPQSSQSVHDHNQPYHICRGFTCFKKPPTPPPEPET

[8] = molecular target: FAD-linked sulfhydryl oxidase ALR (Homo sapiens, UniProt P55789); test: ALR-catalysed DTT oxidation blockers – biochemical, H2O2 detection, luminescence, cherry-pick, dose response (AID 493248)
Sequence of FAD-linked sulfhydryl oxidase ALR (P55789 whole entry): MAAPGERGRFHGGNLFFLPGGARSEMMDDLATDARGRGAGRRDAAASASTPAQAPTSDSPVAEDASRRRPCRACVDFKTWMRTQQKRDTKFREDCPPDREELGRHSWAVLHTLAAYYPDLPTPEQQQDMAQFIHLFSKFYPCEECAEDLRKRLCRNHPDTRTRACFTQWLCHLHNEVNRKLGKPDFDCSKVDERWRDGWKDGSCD

Sequence of Voltage-dependent T-type calcium channel subunit alpha-1H (O95180 whole entry): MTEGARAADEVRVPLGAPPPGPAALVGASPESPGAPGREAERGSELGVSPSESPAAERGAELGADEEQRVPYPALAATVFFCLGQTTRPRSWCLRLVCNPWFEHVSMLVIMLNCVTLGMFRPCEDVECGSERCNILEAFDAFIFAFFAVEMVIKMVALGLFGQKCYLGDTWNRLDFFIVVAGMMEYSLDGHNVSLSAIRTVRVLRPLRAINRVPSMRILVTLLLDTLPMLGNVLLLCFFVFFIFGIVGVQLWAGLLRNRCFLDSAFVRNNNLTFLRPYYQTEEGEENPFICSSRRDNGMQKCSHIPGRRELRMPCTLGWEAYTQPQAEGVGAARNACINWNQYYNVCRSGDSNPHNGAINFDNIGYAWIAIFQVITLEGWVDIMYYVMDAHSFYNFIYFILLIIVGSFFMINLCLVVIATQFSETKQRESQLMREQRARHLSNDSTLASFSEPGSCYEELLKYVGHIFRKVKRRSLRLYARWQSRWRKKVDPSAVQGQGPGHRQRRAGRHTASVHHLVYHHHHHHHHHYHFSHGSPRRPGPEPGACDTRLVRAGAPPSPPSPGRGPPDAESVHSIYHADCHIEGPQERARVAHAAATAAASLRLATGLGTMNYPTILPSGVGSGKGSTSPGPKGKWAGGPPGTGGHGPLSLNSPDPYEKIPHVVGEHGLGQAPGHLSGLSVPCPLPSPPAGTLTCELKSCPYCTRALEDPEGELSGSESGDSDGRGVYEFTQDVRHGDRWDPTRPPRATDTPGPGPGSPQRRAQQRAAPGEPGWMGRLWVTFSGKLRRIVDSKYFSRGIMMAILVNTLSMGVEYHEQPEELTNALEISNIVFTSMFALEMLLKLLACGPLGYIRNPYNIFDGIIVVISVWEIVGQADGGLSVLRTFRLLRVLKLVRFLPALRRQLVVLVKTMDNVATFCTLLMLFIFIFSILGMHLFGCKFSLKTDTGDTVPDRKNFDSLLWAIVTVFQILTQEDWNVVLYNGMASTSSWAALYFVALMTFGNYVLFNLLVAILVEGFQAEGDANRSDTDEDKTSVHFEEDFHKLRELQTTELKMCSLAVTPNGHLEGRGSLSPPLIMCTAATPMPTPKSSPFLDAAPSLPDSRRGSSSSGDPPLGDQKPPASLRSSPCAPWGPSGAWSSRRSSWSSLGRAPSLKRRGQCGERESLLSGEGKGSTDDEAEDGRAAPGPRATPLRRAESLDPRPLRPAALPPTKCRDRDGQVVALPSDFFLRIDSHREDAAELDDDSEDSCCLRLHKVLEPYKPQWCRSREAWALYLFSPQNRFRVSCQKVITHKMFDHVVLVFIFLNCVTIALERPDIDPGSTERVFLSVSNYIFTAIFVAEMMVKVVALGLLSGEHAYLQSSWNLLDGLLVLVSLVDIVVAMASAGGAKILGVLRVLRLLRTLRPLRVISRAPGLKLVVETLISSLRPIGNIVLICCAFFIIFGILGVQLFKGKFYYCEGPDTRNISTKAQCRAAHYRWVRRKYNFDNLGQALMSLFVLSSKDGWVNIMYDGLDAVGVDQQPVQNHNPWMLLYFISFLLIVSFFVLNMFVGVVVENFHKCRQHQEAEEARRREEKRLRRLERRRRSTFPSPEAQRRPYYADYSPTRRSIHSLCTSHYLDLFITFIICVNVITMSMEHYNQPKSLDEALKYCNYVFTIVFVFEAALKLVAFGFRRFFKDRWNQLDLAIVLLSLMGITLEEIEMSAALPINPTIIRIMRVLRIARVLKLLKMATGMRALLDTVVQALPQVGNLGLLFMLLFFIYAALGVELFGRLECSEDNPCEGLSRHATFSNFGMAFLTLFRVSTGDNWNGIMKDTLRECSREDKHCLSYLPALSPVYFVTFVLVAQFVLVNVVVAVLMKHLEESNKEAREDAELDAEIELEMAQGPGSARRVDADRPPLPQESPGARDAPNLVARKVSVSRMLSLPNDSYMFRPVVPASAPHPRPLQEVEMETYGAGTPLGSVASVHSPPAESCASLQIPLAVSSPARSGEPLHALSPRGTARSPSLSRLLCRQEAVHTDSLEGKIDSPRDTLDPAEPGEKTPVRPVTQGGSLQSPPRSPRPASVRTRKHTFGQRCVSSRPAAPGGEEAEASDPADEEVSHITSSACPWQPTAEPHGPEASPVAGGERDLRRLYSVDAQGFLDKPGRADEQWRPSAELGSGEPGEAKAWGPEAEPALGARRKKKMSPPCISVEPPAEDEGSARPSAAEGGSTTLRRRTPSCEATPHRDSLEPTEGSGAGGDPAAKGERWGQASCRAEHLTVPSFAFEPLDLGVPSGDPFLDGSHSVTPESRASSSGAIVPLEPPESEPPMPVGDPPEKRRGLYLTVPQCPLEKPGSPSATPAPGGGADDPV

O=C(/C=C/c1ccc2c(c1)OCO2)NCCSCc1ccc(Cl)cc1Cl
EC50 [1]: 4.94 µM (active)

COc1ccc(C(=O)Nc2cc(Cl)ccc2-c2nnn[nH]2)cc1
IC50 (Hexokinase): 10.9 µM (active)

COc1ccc(NC(=O)c2ccccc2SCc2ccccc2)cc1
IC50 (Hexokinase): > 25 µM (inactive)

CCN(c1ccccc1)S(=O)(=O)c1ccc(OC)c(NC(=O)Cc2ccccc2OC)c1
IC50 (cells): 35 µM (active)
CC50 [2]: > 50 µM (active)

Cc1cc(C)nc(SCc2nnc(SCC(=O)Nc3ccc(C)c(C)c3)n2Cc2ccco2)n1
EC50 [1]: 4.05 µM (active)

CCOc1cc(CNc2ccccc2)cc(Br)c1OCC(=O)NC(C)(C)C
EC50 [1]: 15.4 µM (active)

COc1cc2c(cc1OC)C(C)N(C(=O)c1cc3ccccc3o1)CC2 (stereo not given)
IC50 (cells): 39.6 µM (active)
CC50 [2]: 17.7 µM (active)

COc1ccc(C(=O)Nc2cc(Br)ccc2C(=O)O)cc1
IC50 (Hexokinase): 6.94 µM (active)

O=C1CCSc2ccc(Cl)cc2N1Cc1cccc(Cl)c1
IC50 (cells): 42.8 µM (active)
CC50 [2]: 35.5 µM (active)

Nc1sc(-c2ccccc2)cc1C(=O)N/N=C/c1ccc(Cl)cc1
IC50 (cells): 35.7 µM (active)
EC50 (Streptokinase A): > 150 µM (not active)
CC50 [2]: > 50 µM (active)
EC50 (Streptococcus): 4.54 µM (active)
EC50 [3]: 3.46 µM (active)

O=C(Nc1cc(Cl)ccc1C(=O)O)c1cocn1
IC50 (Hexokinase): > 25 µM (inactive)

Cc1ccc(C)c(N2CCN(C(=O)Cc3cn(C)c4ccccc34)CC2)c1
EC50 [1]: 9.19 µM (active)

O=C(O)c1cc(/C=N\O)ccc1OCc1ccccc1
IC50 (Leucine aminopeptidase): 16.4 µM (active)

CC(C)(C)Cc1nc2ccccc2n1CCc1ccccc1
EC50 [4]: 1.06 µM (active)
EC50 [1]: 7.13 µM (active)
EC50 [5]: > 260 µM (inactive)

COc1ccc2c(c1)CN(c1cc(Cl)ccc1C(=O)O)C2=O
IC50 (Hexokinase): > 25 µM (inactive)

Oc1ccccc1Nc1nc(NCC2CCCO2)c2ccccc2n1 (stereo not given)
CC50 [6]: 30.4 µM (active)

Cc1cc2nc(-c3ccc(NC(=O)C(C)C)cc3)oc2cc1C
IC50 (cells): 39.1 µM (active)

COc1cc(/C(C)=N/NC(=O)Cc2c(C)n[nH]c2O)ccc1O
IC50 [7]: 69.8 µM (active)
IC50 (Large T antigen): 13 µM (active)
IC50 (Leucine aminopeptidase): 34.1 µM (active)
AC50 [8]: 4.03 µM (active)
